System: Type 2 diabetic patients
Assay: Clinical study in Type 2 diabetic patients, blood glucose by glucometer and side effects
Format: in vivo, human
Protocol: The effect of the Urdi-1 extract was tested on six Type 2 diabetic patients. The consents were filled by patients and were reviewed by the ethical committee of Tehran Hospital. The UD1-extract (20 mg of Urdi-1) was taken orally as one or two dosages per day. Blood glucose was measured by glucometer as fasted or after dining. After getting the promising data at the animal level, we tested the efficacy of Urdi-1 in Type 2 diabetic patients. Six patients (Patient I to VI) with high level of blood glucose consented to participate in the study (Table 2). These patients were selected different sex (male and female) with varying age ranging from mid forty to late sixty. As the level of the referral blood glucose and the medication administrated by their physicians were different data of each patient is presented individually.

[1] = Patient I, after insulin two weeks then Glibenclamide and metformin for one month
[2] = Patient IV, after insulin 17 days then Glibenclamide and metformin for two weeks

Glibenclamide and metformin
fasting blood glucose [1]: about 175 mg/dL | night blood glucose [1]: ~225 mg/dL | fasting blood glucose [2]: about 90 mg/dL | night blood glucose [2]: ~220 mg/dL

Source: patent publication US11246899B2, “Urtica dioica extracts and methods of isolating urtica dioica extracts” (SynHiTech Inc., priority 2018, dated 2022)
